Patent US9238039B2, “Pyrazolo[1,5-A]pyrimidines for antiviral treatment” (Gilead Sciences, Inc., priority 2010, dated 2016)

Test system: RSV strain A2
Experiment: RSV antiviral cytoprotection assay in Hep2 cells (96-well and 384-well format, Cell TiterGlo read-out)
Format: cell-based, Respiratory Syncytial Virus (RSV)
Details: for inhibition at 0.5 µM: HEp-2, 0.5 uM; for inhibition at 1 µM: HEp-2, 1 uM; for EC50: Hep2 cells, class symbols
[1] = human respiratory syncytial virus, RSV-induced cytopathic effect in Hep2 cells, calculated from fitted dose response curve, normalized to 0% and 100%
[2] = human respiratory syncytial virus, HEp-2, RSV-induced cytopathic effects

SMILES | EC50 [2] [nM] | EC50 (RSV-induced cytopathic effects) [nM] | inhibition at 0.5 µM [1] [%] | inhibition at 1 µM [1] [%] | % inh @ 0.5 uM (0.5 uM, RSV-induced cytopathic effect in Hep2 cells, calculated from fitted dose response curve, normalized to 0% and 100%) [%]
Cc1[nH]c2cc([C@@H]3CCCCN3C(=O)c3ccccc3NC(=O)OC(C)(C)C)nn2c(=O)c1C [Compound 2] | 101 to 1000 |  | 36 | 46 | 
CNc1ccccc1C(=O)N1CCCC[C@H]1c1cc2[nH]c(C)c(C)c(=O)n2n1 [Compound 7] | 0.1 to 100 |  | 93 | 98 | 
Cc1[nH]c2cc([C@@H]3CCCCN3C(=O)c3ccccc3NS(=O)(=O)N3CCOCC3)nn2c(=O)c1C [Compound 15] | 101 to 1000 |  | 30 | 42 | 
Cc1c[nH]c2cc([C@@H]3CCCCN3C(=O)c3cc(F)ccc3NS(C)(=O)=O)nn2c1=O [Compound 17] | 101 to 1000 |  | 75 | 97 | 
Cc1[nH]c2cc([C@@H]3CCCCN3C(=O)c3cc(F)ccc3NS(C)(=O)=O)nn2c(=O)c1F [Compound 19] | 101 to 1000 |  | 67 | 84 | 
Cc1[nH]c2cc([C@@H]3COCCN3C(=O)c3ccccc3NS(C)(=O)=O)nn2c(=O)c1C [Compound 20, N-{2-[3-(5,6-Dimethyl-7-oxo-4,7-dihydro-pyrazolo[1,5-a]pyrimidin-2-yl)-morpholine-4-carbonyl]-phenyl}-methanesulfonamide] | 1000 to 10000 |  | 7 | 53 | 
Cc1[nH]c2cc([C@@H]3C[C@H](C)CCN3C(=O)c3cc(F)ccc3NS(C)(=O)=O)nn2c(=O)c1C [Compound 21] | 1000 to 10000 |  | 4 | 10 | 
CCc1c(C)[nH]c2cc([C@@H]3CCCCN3C(=O)c3cc(F)ccc3NS(C)(=O)=O)nn2c1=O [Compound 28] | 101 to 1000 |  | 73 | 95 | 
Cc1ccc(NS(C)(=O)=O)c(C(=O)N2CCCC(C)C2c2cc3[nH]c(C)c(C)c(=O)n3n2)c1 (centres unmarked) [Compound 30] |  | 101 to 1000 | 99 |  | 
Cc1cccc(NS(C)(=O)=O)c1C(=O)N1CCCC[C@H]1c1cc2[nH]c(C)c(C)c(=O)n2n1 [Compound 32] | 0.1 to 100 |  | 99 |  | 
Cc1ccc(NS(C)(=O)=O)c(C(=O)N2Cc3ccccc3C[C@H]2c2cc3[nH]c(C)c(C)c(=O)n3n2)c1 [Compound 33] | 0.1 to 100 |  | 98 |  | 
Cc1ccc(NS(C)(=O)=O)c(C(=O)N2CCCC(C)C2c2cc3[nH]c(C)c(C)c(=O)n3n2)c1 (centres unmarked) [Compound 37] |  | 0.1 to 100 |  |  | 100
Cc1cc(N2CC(O)C2)nc2cc([C@@H]3CCCCN3C(=O)c3cc(Cl)ccc3NS(C)(=O)=O)nn12 [Compound 40] | 0.1 to 100 |  | 100 |  | 
CS(=O)(=O)Nc1ccc(Cl)cc1C(=O)N1CCCC[C@H]1c1cc2nc(N3CCC3)cc(N3CCC(O)CC3)n2n1 [Compound 44] | 0.1 to 100 |  | 100 |  | 
CS(=O)(=O)Nc1ccc(Cl)cc1C(=O)N1CCCC[C@H]1c1cc2nc(N3CCC3)cc(N3CCNCC3)n2n1 [Compound 45] | 0.1 to 100 |  | 100 |  | 
CS(=O)(=O)Nc1ccc(Cl)cc1C(=O)N1CCCC[C@H]1c1cc2nc(N3CC(O)C3)ccn2n1 [Compound 49] | 0.1 to 100 |  | 98 |  | 

SMILES | EC50 [2] [nM] | EC50 (RSV-induced cytopathic effects) [nM] | inhibition at 0.5 µM [1] [%] | inhibition at 1 µM [1] [%] | % inh @ 0.5 uM (0.5 uM, RSV-induced cytopathic effect in Hep2 cells, calculated from fitted dose response curve, normalized to 0% and 100%) [%]
CS(=O)(=O)Nc1ccc(Cl)cc1C(=O)N1CCCC[C@H]1c1cc2nc(N3CCC3)cc(N3CCC(O)C3)n2n1 (some centres unmarked) [Compound 57] | 0.1 to 100 |  | 100 |  | 
CS(=O)(=O)Nc1ccc(Cl)cc1C(=O)N1CCCC[C@H]1c1cc2nc(N3CC(O)C3)cc(N3CC4(COC4)C3)n2n1 [Compound 58] | 0.1 to 100 |  | 99 |  | 
CS(=O)(=O)Nc1ccc(Cl)cc1C(=O)N1CCCC[C@H]1c1cc2nc(N3CC(O)C3)cc(N3CC(O)C3)n2n1 [Compound 59] | 0.1 to 100 |  | 100 |  | 
Cc1cc(C2CC2)nc2cc([C@@H]3CCCCN3C(=O)c3cc(Cl)ccc3NS(C)(=O)=O)nn12 [Compound 60] | 0.1 to 100 |  | 100 |  | 
Cc1ccc(NS(C)(=O)=O)c(C(=O)N2CCCC[C@H]2c2cc3nc(C4CC4)cc(N4CCOCC4)n3n2)c1 [Compound 62] | 0.1 to 100 |  | 100 |  | 
CS(=O)(=O)Nc1ccc(Cl)cc1C(=O)N1CCCC[C@H]1c1cc2nc(C3CC3)cc(N3CCOCC3)n2n1 [Compound 63] | 0.1 to 100 |  | 98 |  | 
CS(=O)(=O)Nc1ccc(Cl)cc1C(=O)N1CCCC[C@H]1c1cc2nc(C3CC3)cc(N3CCC3)n2n1 [Compound 64] | 0.1 to 100 |  | 98 |  | 
Cc1ccc(NS(C)(=O)=O)c(C(=O)N2CCCC[C@H]2c2cc3nc(C4CC4)cc(N4CCC4)n3n2)c1 [Compound 65] | 0.1 to 100 |  | 100 |  | 
CC(=O)Nc1ccc(Cl)cc1C(=O)N1CCCC[C@H]1c1cc2nc(C3CC3)cc(C)n2n1 [Compound 66] | 0.1 to 100 |  | 99 |  | 
CS(=O)(=O)Nc1ccc(Cl)cc1C(=O)N1CCCC[C@H]1c1cc2nc(N3CCC3)cc(N3CCOCC3)n2n1 [Compound 67] | 0.1 to 100 |  | 100 |  | 
CS(=O)(=O)Nc1ccc(Cl)cc1C(=O)N1CCCC[C@H]1c1cc2nc(N3CC(N)C3)cc(N3CCOCC3)n2n1 [Compound 68] | 0.1 to 100 |  | 100 |  | 
CS(=O)(=O)Nc1ccc(Cl)cc1C(=O)N1CCCC[C@H]1c1cc2nc(N3CC(O)C3)cc(N3CCOCC3)n2n1 [Compound 69] | 0.1 to 100 |  | 100 |  | 
CS(=O)(=O)Nc1ccc(Cl)cc1C(=O)N1CCCC[C@H]1c1cc2nc(N3CCCO3)cc(N3CCOCC3)n2n1 [Compound 70] | 0.1 to 100 |  | 99 |  | 
CS(=O)(=O)Nc1ccc(Cl)cc1C(=O)N1CCCC[C@H]1c1cc2nc(N3CC[C@@H](O)C3)cc(N3CCOCC3)n2n1 [Compound 71] | 0.1 to 100 |  | 95 |  | 
CS(=O)(=O)Nc1ccc(Cl)cc1C(=O)N1CCCC[C@H]1c1cc2nc(N3CC(F)C3)cc(N3CCOCC3)n2n1 [Compound 72] | 0.1 to 100 |  | 98 |  | 

Now from value to molecule, other results behind:

EC50 [2] [nM] | EC50 (RSV-induced cytopathic effects) [nM] | SMILES | inhibition at 0.5 µM [1] [%] | inhibition at 1 µM [1] [%] | % inh @ 0.5 uM (0.5 uM, RSV-induced cytopathic effect in Hep2 cells, calculated from fitted dose response curve, normalized to 0% and 100%) [%]
0.1 to 100 |  | COc1ccc(NS(C)(=O)=O)c(C(=O)N2CCCC[C@H]2c2cc3[nH]c(C)c(C)c(=O)n3n2)c1 [Compound 10] | 94 | 99 | 
0.1 to 100 |  | Cc1[nH]c2cc([C@@H]3CCCCN3C(=O)c3ccccc3NC(=O)C3CC3)nn2c(=O)c1C [Compound 14] | 96 | 98 | 
0.1 to 100 |  | CC(=O)Nc1ccc(F)cc1C(=O)N1CCCC[C@H]1c1cc2[nH]c(C)c(C)c(=O)n2n1 [Compound 16] | 89 | 97 | 
0.1 to 100 |  | Cc1[nH]c2cc([C@@H]3C[C@@H](C)CCN3C(=O)c3cc(F)ccc3NS(C)(=O)=O)nn2c(=O)c1C [Compound 22] | 95 | 99 | 
0.1 to 100 |  | Cc1ccc(NS(C)(=O)=O)c(C(=O)N2Cc3ccccc3C[C@H]2c2cc3nc(C)c(C)c(N(C)C)n3n2)c1 [Compound 34] | 91 |  | 
0.1 to 100 |  | Cc1ccc(NS(C)(=O)=O)c(C(=O)N2Cc3ccccc3C[C@H]2c2cc3nc(C)c(C)cn3n2)c1 [Compound 35] | 96 |  | 
0.1 to 100 |  | Cc1ccc(NS(C)(=O)=O)c(C(=O)N2CCCC(C)C2c2cc3nc(C)c(C)cn3n2)c1 (centres unmarked) [Compound 36] | 90 |  | 
0.1 to 100 |  | Cc1ccc(NS(C)(=O)=O)c(C(=O)N2CCCC[C@H]2c2cc3nc(C)cc(N(C)C)n3n2)c1 [Compound 39] | 100 |  | 
0.1 to 100 |  | Cc1cc(N(C)C)nc2cc([C@@H]3CCCCN3C(=O)c3cc(Cl)ccc3NS(C)(=O)=O)nn12 [Compound 41] | 95 |  | 
0.1 to 100 |  | Cc1cc(N2CCC2)nc2cc([C@@H]3CCCCN3C(=O)c3cc(Cl)ccc3NS(C)(=O)=O)nn12 [Compound 42] | 100 |  | 
0.1 to 100 |  | CS(=O)(=O)Nc1ccc(Cl)cc1C(=O)N1CCCC[C@H]1c1cc2nc(N3CCC3)ccn2n1 [Compound 43] | 100 |  | 
0.1 to 100 |  | Cc1cc(N2CCCC2)nc2cc([C@@H]3CCCCN3C(=O)c3cc(Cl)ccc3NS(C)(=O)=O)nn12 [Compound 46] | 100 |  | 
0.1 to 100 |  | Cc1cc(N2CC(F)C2)nc2cc([C@@H]3CCCCN3C(=O)c3cc(Cl)ccc3NS(C)(=O)=O)nn12 [Compound 47] | 100 |  | 
0.1 to 100 |  | Cc1cc(N2CC[C@@H](O)C2)nc2cc([C@@H]3CCCCN3C(=O)c3cc(Cl)ccc3NS(C)(=O)=O)nn12 [Compound 48] | 99 |  | 
0.1 to 100 |  | CS(=O)(=O)Nc1ccc(Cl)cc1C(=O)N1CCCC[C@H]1c1cc2nc(N3CC(O)C3)cc(N3CCNCC3)n2n1 [Compound 50] | 100 |  | 
0.1 to 100 |  | CS(=O)(=O)Nc1ccc(Cl)cc1C(=O)N1CCCC[C@H]1c1cc2nc(N3CC[C@@H](O)C3)ccn2n1 [Compound 51] | 98 |  | 
0.1 to 100 |  | Cc1cc(N2CC(N)C2)nc2cc([C@@H]3CCCCN3C(=O)c3cc(Cl)ccc3NS(C)(=O)=O)nn12 [Compound 52] | 100 |  | 
0.1 to 100 |  | CS(=O)(=O)Nc1ccc(Cl)cc1C(=O)N1CCCC[C@H]1c1cc2nc(N3CC(N)C3)ccn2n1 [Compound 53] | 98 |  | 
0.1 to 100 |  | CN1CCN(c2cc(N3CC(O)C3)nc3cc([C@@H]4CCCCN4C(=O)c4cc(Cl)ccc4NS(C)(=O)=O)nn23)CC1 [Compound 54] | 100 |  | 
0.1 to 100 |  | CN(C)CCN(C)c1cc(N2CC(O)C2)nc2cc([C@@H]3CCCCN3C(=O)c3cc(Cl)ccc3NS(C)(=O)=O)nn12 [Compound 55] | 100 |  | 
0.1 to 100 |  | CS(=O)(=O)Nc1ccc(Cl)cc1C(=O)N1CCCC[C@H]1c1cc2nc(N3CCC3)cc(N3CC(O)C3)n2n1 [Compound 56] | 100 |  | 
